Literature values, collected in patent publication US20230022136A1, “DIFFUSIVITY CONTRAST AGENTS FOR MEDICAL IMAGING” (priority 2020, published 2023).

Conditions: attributed to increased hydrogen bonding of the water molecules

CC(/C=C/C=C(\C)C(=O)[O-])=C\C=C\C=C(C)\C=C\C=C(/C)C(=O)[O-].[Na+].[Na+] [Trans-Sodium crocetinate]
increase of the diffusion coefficient of glucose through water: 25-30%
